Experimental data: patent US11206827B2, “Herbicidal composition comprising cinmethylin and specific quinolinecarboxylic acids” (BASF Agro B.V., priority 2015, dated 2021)

What was measured:
Assay type in all cases: in vivo
Details in all cases: solo application, 20 DAT
[1] = tested on: Polygonum convolvulus; assay: Greenhouse pre-emergence herbicidal activity, POLCO
Experimental: (§1) The test plants have been seeded, separately for each species, in plastic containers in sandy loamy soil containing 5% of organic matter.
(§2) The containers were irrigated gently to promote germination and growth and subsequently covered with transparent plastic hoods until the plants had rooted.
(§3) The plants have been cultivated due to their individual requirements at 10-25° C. and 20-35° C. The plants were irrigated due to their necessity.
(§4) The racemic mixture (±)-2-exo-(2-Methylbenzyloxy)-1-methyl-4-isopropyl-7-oxabicyclo[2.2.1]heptane was used as herbicide A and formulated as emulsifiable concentrates with an active ingredient concentration of 50 g/l, 100 g/l or 750 g/l respectively.
(§5) Quinmerac (herbicide B.2) was used as a wettable powder (WP) formulation having an active ingredient concentration of 50%.
(§6) In the following experiments, the herbicidal activity for the individual herbicidal compositions (solo and mixture applications) was assessed 20 days after treatment (DAT).
(§7) The evaluation for the damage on undesired weeds caused by the chemical compositions was carried out using a scale from 0 to 100%, compared to the untreated control plants. Here, 0 means no damage and 100 means complete destruction of the plants.
(§8) The plants used in the greenhouse experiments belonged to the following species:
(§9) where X=effect in percent using herbicide A at an application rate a; • Y=effect in percent using herbicide B at application rate b; • E=expected effect (in %) of herbicide A+ herbicide B at application rates a+b.
(§10) The value E corresponds to the effect (plant damage or injury) which is to be expected if the activity of the individual compounds is additive. If the observed effect is higher than the value E calculated according to the Colby equation, a synergistic effect is present.
(§11) Table 1 below relates to the herbicidal activity, in greenhouse trials, of the individual actives and the combinations applied at different rates and ratios, in pre-emergence application at 20 days after treatment (DAT).

[2] = tested on: Abutilon theophrasti; assay: Greenhouse pre-emergence herbicidal activity, ABUTH
Experimental: as §1, §2, §3, §4, §5, §6, §7, §8, §9, §10, §11

[3] = tested on: Papaver rhoeas; assay: Greenhouse pre-emergence herbicidal activity, PAPRH
Experimental: as §1, §2, §3, §4, §5
(§12) In the following experiments, the herbicidal activity for the individual herbicidal compositions (solo and mixture applications) was assessed 20 days after treatment (DAT). […]
(§13) The value E corresponds to the effect (plant damage or injury) which is to be expected if the activity of the individual compounds is additive. If the observed effect is higher than the value E calculated according to the Colby equation, a synergistic effect is present. […]

[4] = tested on: Anthemis arvensis; assay: Greenhouse pre-emergence herbicidal activity, ANTAR
Experimental: as §1, §2, §3, §4, §5, §12, §13

[5] = tested on: Digitaria sanguinalis; assay: Greenhouse pre-emergence herbicidal activity, DIGSA
Experimental: as §1, §2, §3, §4, §5, §6, §7, §8, §9, §10, §11

[6] = tested on: Avena fatua; assay: Greenhouse pre-emergence herbicidal activity, AVEFA
Experimental: as §1, §2, §3, §4, §5, §6, §7, §8, §9, §10, §11

[7] = tested on: Sorghum halepense; assay: Greenhouse pre-emergence herbicidal activity, SORHA
Experimental: as §1, §2, §3, §4, §5, §6, §7, §8, §9, §10, §11

[8] = tested on: Stellaria media; assay: Greenhouse pre-emergence herbicidal activity, STEME
Experimental: as §1, §2, §3, §4, §5, §6, §7, §8, §9, §10, §11

[9] = tested on: Geranium dissectum; assay: Greenhouse pre-emergence herbicidal activity, GERDI
Experimental: as §1, §2, §3, §4, §5, §6, §7, §8, §9, §10, §11

[10] = tested on: Alopecurus myosuroides; assay: Greenhouse pre-emergence herbicidal activity, ALOMY
Experimental: as §1, §2, §3, §4, §5, §12, §13

[11] = tested on: Lolium multiflorum; assay: Greenhouse pre-emergence herbicidal activity, LOLMU
Experimental: as §1, §2, §3, §4, §5, §6, §7, §8, §9, §10, §11

[12] = tested on: Amaranthus retroflexus; assay: Greenhouse pre-emergence herbicidal activity, AMARE
Experimental: as §1, §2, §3, §4, §5, §12, §13

[13] = tested on: Echinochloa crus-galli; assay: Greenhouse pre-emergence herbicidal activity, ECHCG
Experimental: as §1, §2, §3, §4, §5, §6, §7, §8, §9, §10, §11

[14] = tested on: Setaria viridis; assay: Greenhouse pre-emergence herbicidal activity, SETVI
Experimental: as §1, §2, §3, §4, §5, §6, §7, §8, §9, §10, §11

“(±)-2-exo-(2-Methylbenzyloxy)-1-methyl-4-isopropyl-7-oxabicyclo[2.2.1]heptane [herbicide A]” gave a herbicidal activity ([1]; 125 g ai/ha) of 0%, a herbicidal activity ([1]; 250 g ai/ha) of 0% and a herbicidal activity ([2]; 62.5 g ai/ha) of 25%. For the same compound, the herbicidal activity ([2]; 250 g ai/ha) was 65%, the herbicidal activity ([3]; 12.5 g ai/ha) was 70% and the herbicidal activity ([4]; 100 g ai/ha) was 0%. For the same compound, the herbicidal activity ([5]; 12.5 g ai/ha) was 0%, the herbicidal activity ([5]; 25 g ai/ha) was 0% and the herbicidal activity ([5]; 50 g ai/ha) was 70%. It also gave a herbicidal activity ([5]; 100 g ai/ha) of 90%, a herbicidal activity ([6]; 31.25 g ai/ha) of 0% and a herbicidal activity ([6]; 50 g ai/ha) of 0%. For the same compound, the herbicidal activity ([6]; 62.5 g ai/ha) was 30%, the herbicidal activity ([6]; 100 g ai/ha) was 10% and the herbicidal activity ([7]; 25 g ai/ha) was 98%. For the same compound, the herbicidal activity ([7]; 250 g ai/ha) was 95%, the herbicidal activity ([8]; 62.5 g ai/ha) was 0% and the herbicidal activity ([8]; 125 g ai/ha) was 40%. For the same compound, the herbicidal activity ([9]; 12.5 g ai/ha) was 0%, the herbicidal activity ([9]; 25 g ai/ha) was 0% and the herbicidal activity ([9]; 100 g ai/ha) was 95%. For the same compound, the herbicidal activity ([9]; 250 g ai/ha) was 85%, the herbicidal activity ([10]; 100 g ai/ha) was 95% and the herbicidal activity ([11]; 100 g ai/ha) was 70%. It also gave a herbicidal activity ([11]; 250 g ai/ha) of 98%, a herbicidal activity ([12]; 100 g ai/ha) of 30% and a herbicidal activity ([13]; 12.5 g ai/ha) of 95%. For the same compound, the herbicidal activity ([13]; 25 g ai/ha) was 98%, the herbicidal activity ([14]; 12.5 g ai/ha) was 90% and the herbicidal activity ([14]; 25 g ai/ha) was 95%.
`Cc1cnc2c(C(=O)O)c(Cl)ccc2c1` [quinmerac, 7-chloro-3-methylquinoline-8-carboxylic acid] gave a herbicidal activity ([1]; 100 g ai/ha) of 0%, a herbicidal activity ([1]; 200 g ai/ha) of 0% and a herbicidal activity ([2]; 50 g ai/ha) of 0%. For the same compound, the herbicidal activity ([2]; 200 g ai/ha) was 0%, the herbicidal activity ([3]; 31.25 g ai/ha) was 0% and the herbicidal activity ([4]; 250 g ai/ha) was 0%. It also gave a herbicidal activity ([5]; 31.25 g ai/ha) of 0%, a herbicidal activity ([5]; 62.5 g ai/ha) of 0% and a herbicidal activity ([5]; 125 g ai/ha) of 0%. The herbicidal activity ([5]; 250 g ai/ha) was 0%, the herbicidal activity ([6]; 25 g ai/ha) was 0% and the herbicidal activity ([6]; 50 g ai/ha) was 0%. For the same compound, the herbicidal activity ([6]; 125 g ai/ha) was 0%, the herbicidal activity ([6]; 250 g ai/ha) was 0% and the herbicidal activity ([7]; 62.5 g ai/ha) was 0%. It also gave a herbicidal activity ([7]; 200 g ai/ha) of 25%, a herbicidal activity ([8]; 50 g ai/ha) of 0% and a herbicidal activity ([8]; 100 g ai/ha) of 0%. The herbicidal activity ([9]; 31.25 g ai/ha) was 0%, the herbicidal activity ([9]; 62.5 g ai/ha) was 0% and the herbicidal activity ([9]; 200 g ai/ha) was 0%. It also gave a herbicidal activity ([9]; 250 g ai/ha) of 50%, a herbicidal activity ([10]; 250 g ai/ha) of 0% and a herbicidal activity ([11]; 200 g ai/ha) of 25%. For the same compound, the herbicidal activity ([11]; 250 g ai/ha) was 0%, the herbicidal activity ([12]; 250 g ai/ha) was 0% and the herbicidal activity ([13]; 31.25 g ai/ha) was 0%. The herbicidal activity ([13]; 62.5 g ai/ha) was 0%, the herbicidal activity ([14]; 31.25 g ai/ha) was 0% and the herbicidal activity ([14]; 62.5 g ai/ha) was 0%.
